Measurements as given in patent US20180000085A1, “USE OF PICOLINAMIDE COMPOUNDS WITH FUNGICIDAL ACTIVITY” (DOW AGROSCIENCES LLC, priority 2014, published 2018).

Tests used:
Type in all cases: in vivo
Alternaria solani = assay: Tomato early blight (ALTESO) disease control; design: key: A: > 80; B: ≤ 80; C: Not Tested; D: No Activity Observed in the Reported Assay; conditions: 100 ppm, 1 Day Protectant
Experimental: All fungicides were evaluated using the aforementioned method for their activity vs. all target diseases, unless stated otherwise. Wheat leaf blotch and brown rust activity were also evaluated using track spray applications, in which case the fungicides were formulated as EC formulations, containing 0.1% Trycol 5941 in the spray solutions. Wheat plants (variety Yuma) were grown from seed in a greenhouse in 50% mineral soil/50% soil-less Metro mix until the first leaf was fully emerged, with 7-10 seedlings per pot. These plants were inoculated with an aqueous spore suspension of Zymoseptoria tritici either prior to or after fungicide treatments. After inoculation the plants were kept in 100% relative humidity (one day in a dark dew chamber followed by two to three days in a lighted dew chamber at 20° C.) to permit spores to germinate and infect the leaf. The plants were then transferred to a greenhouse set at 20° C. for disease to develop. When disease symptoms were fully expressed on the 1st leaves of untreated plants, infection levels were assessed on a scale of 0 to 100 percent disease severity. Percent disease control was calculated using the ratio of disease severity on treated plants relative to untreated plants. Example J: Evaluation of Fungicidal Activity: Tomato Early Blight (Alternaria solani; Bayer Code […]) Tomato plants (variety Outdoor Girl) were propagated in soil-less Metro mix, with each pot having one plant, and used when 12 to 14 days old. Test plants were inoculated with an aqueous spore suspension of Alternaria solani 24 hr after fungicide treatments. After inoculation the plants were kept in a dew room at 22° C. with 100% relative humidity for 48 h to permit spores to germinate and infect the leaf. The plants were then transferred to a growth room at 22° C. for disease to develop. Fungicide formulation, application and disease assessment on the sprayed leaves followed the procedures as described in the Example A.

Puccinia triticina = assay: Wheat brown rust (PUCCRT) disease control on wheat seedlings; conditions: low volume application, 125.1 g/H; for PUCCRT 1DP disease control rating, LV activity at 125.1 g/H: 1 day protectant; for PUCCRT 3DC disease control rating, LV activity at 125.1 g/H: 3 day curative
Zymoseptoria tritici = assay: Leaf blotch of wheat (SEPTTR) disease control on wheat seedlings; conditions: low volume application, 125.1 g/H; for SEPTTR 1DP disease control rating, LV activity at 125.1 g/H: 1 day protectant; for SEPTTR 3DC disease control rating, LV activity at 125.1 g/H: 3 day curative

## COc1ccnc(C(=O)N[C@@H](C)C(=O)O[C@@H](C)[C@H](Oc2cccc(Cl)c2)C(C)C)c1OC(C)=O [Cmpd 566]
Alternaria solani
  ALTESO disease control, 1DP: B (≤ 80)
Puccinia triticina; 1 Day Protectant
  PUCCRT 1DP, LV activity at 125.1 g/H (% Control rating): A (> 80)
Puccinia triticina; 3 Day Curative
  PUCCRT 3DC, LV activity at 125.1 g/H (% Control rating): A (> 80)
Zymoseptoria tritici; 1 Day Protectant
  SEPTTR 1DP, LV activity at 125.1 g/H (% Control rating): B (≤ 80)
Zymoseptoria tritici; 3 Day Curative
  SEPTTR 3DC, LV activity at 125.1 g/H (% Control rating): A (> 80)

## COc1ccnc(C(=O)N[C@@H](C)C(=O)O[C@@H](C)[C@H](Oc2cccc(F)c2)c2ccccc2)c1OCOC(C)=O [Cmpd 574]
Alternaria solani
  ALTESO disease control, 1DP: B (≤ 80)
Puccinia triticina; 1 Day Protectant
  PUCCRT 1DP, LV activity at 125.1 g/H (% Control rating): A (> 80)
Puccinia triticina; 3 Day Curative
  PUCCRT 3DC, LV activity at 125.1 g/H (% Control rating): A (> 80)
Zymoseptoria tritici; 1 Day Protectant
  SEPTTR 1DP, LV activity at 125.1 g/H (% Control rating): A (> 80)
Zymoseptoria tritici; 3 Day Curative
  SEPTTR 3DC, LV activity at 125.1 g/H (% Control rating): A (> 80)

## CCC(CC)[C@@H](Oc1ccc(F)cc1)[C@H](C)OC(=O)[C@H](C)NC(=O)c1nccc(OC)c1OCOC(C)=O [Cmpd 587]
Alternaria solani
  ALTESO disease control, 1DP: D
Puccinia triticina; 1 Day Protectant
  PUCCRT 1DP, LV activity at 125.1 g/H (% Control rating): A (> 80)
Puccinia triticina; 3 Day Curative
  PUCCRT 3DC, LV activity at 125.1 g/H (% Control rating): A (> 80)
Zymoseptoria tritici; 1 Day Protectant
  SEPTTR 1DP, LV activity at 125.1 g/H (% Control rating): A (> 80)
Zymoseptoria tritici; 3 Day Curative
  SEPTTR 3DC, LV activity at 125.1 g/H (% Control rating): A (> 80)

## COc1ccnc(C(=O)N[C@@H](C)C(=O)O[C@@H](C)[C@H](Oc2cc(F)cc(Cl)c2)C(C)C)c1OCOC(C)=O [Cmpd 617]
Alternaria solani
  ALTESO disease control, 1DP: D
Puccinia triticina; 1 Day Protectant
  PUCCRT 1DP, LV activity at 125.1 g/H (% Control rating): A (> 80)
Puccinia triticina; 3 Day Curative
  PUCCRT 3DC, LV activity at 125.1 g/H (% Control rating): A (> 80)
Zymoseptoria tritici; 1 Day Protectant
  SEPTTR 1DP, LV activity at 125.1 g/H (% Control rating): A (> 80)
Zymoseptoria tritici; 3 Day Curative
  SEPTTR 3DC, LV activity at 125.1 g/H (% Control rating): A (> 80)

## COc1ccnc(C(=O)N[C@@H](C)C(=O)O[C@@H](C)[C@H](Oc2cccc(Cl)c2)c2ccccc2)c1OCOC(C)=O [Cmpd 637]
Alternaria solani
  ALTESO disease control, 1DP: D
Puccinia triticina; 1 Day Protectant
  PUCCRT 1DP, LV activity at 125.1 g/H (% Control rating): A (> 80)
Puccinia triticina; 3 Day Curative
  PUCCRT 3DC, LV activity at 125.1 g/H (% Control rating): B (≤ 80)
Zymoseptoria tritici; 1 Day Protectant
  SEPTTR 1DP, LV activity at 125.1 g/H (% Control rating): A (> 80)
Zymoseptoria tritici; 3 Day Curative
  SEPTTR 3DC, LV activity at 125.1 g/H (% Control rating): A (> 80)

## COc1ccnc(C(=O)N[C@@H](C)C(=O)O[C@@H](C)[C@H](Oc2ccccc2Cl)c2ccccc2)c1OC(C)=O [Cmpd 640]
Alternaria solani
  ALTESO disease control, 1DP: B (≤ 80)
Puccinia triticina; 1 Day Protectant
  PUCCRT 1DP, LV activity at 125.1 g/H (% Control rating): A (> 80)
Puccinia triticina; 3 Day Curative
  PUCCRT 3DC, LV activity at 125.1 g/H (% Control rating): A (> 80)
Zymoseptoria tritici; 1 Day Protectant
  SEPTTR 1DP, LV activity at 125.1 g/H (% Control rating): A (> 80)
Zymoseptoria tritici; 3 Day Curative
  SEPTTR 3DC, LV activity at 125.1 g/H (% Control rating): A (> 80)

## COc1ccnc(C(=O)N[C@@H](C)C(=O)O[C@@H](C)[C@H](Oc2cc(F)cc(Cl)c2)c2ccccc2)c1OC(C)=O [Cmpd 642]
Alternaria solani
  ALTESO disease control, 1DP: D
Puccinia triticina; 1 Day Protectant
  PUCCRT 1DP, LV activity at 125.1 g/H (% Control rating): A (> 80)
Puccinia triticina; 3 Day Curative
  PUCCRT 3DC, LV activity at 125.1 g/H (% Control rating): B (≤ 80)
Zymoseptoria tritici; 1 Day Protectant
  SEPTTR 1DP, LV activity at 125.1 g/H (% Control rating): A (> 80)
Zymoseptoria tritici; 3 Day Curative
  SEPTTR 3DC, LV activity at 125.1 g/H (% Control rating): A (> 80)

## CCC(C)C(Oc1ccccc1)C(C)OC(=O)C(C)NC(=O)c1nccc(OC)c1OC(C)=O (stereo not drawn) [Cmpd 691]
Alternaria solani
  ALTESO disease control, 1DP: D
Puccinia triticina
  PUCCRT 1DP disease control rating, LV activity at 125.1 g/H: A (> 80)
  PUCCRT 3DC disease control rating, LV activity at 125.1 g/H: A (> 80)
Zymoseptoria tritici
  SEPTTR 1DP disease control rating, LV activity at 125.1 g/H: A (> 80)
  SEPTTR 3DC disease control rating, LV activity at 125.1 g/H: A (> 80)

## CCC(C)C(Oc1ccccc1)C(C)OC(=O)C(C)NC(=O)c1nccc(OC)c1OCOC(C)=O (stereo not drawn) [Cmpd 692]
Alternaria solani
  ALTESO disease control, 1DP: B (≤ 80)
Puccinia triticina
  PUCCRT 1DP disease control rating, LV activity at 125.1 g/H: A (> 80)
  PUCCRT 3DC disease control rating, LV activity at 125.1 g/H: A (> 80)
Zymoseptoria tritici
  SEPTTR 1DP disease control rating, LV activity at 125.1 g/H: A (> 80)
  SEPTTR 3DC disease control rating, LV activity at 125.1 g/H: A (> 80)

## C=CC(C)C(Oc1ccccc1)C(C)OC(=O)C(C)NC(=O)c1nccc(OC)c1OCOC(C)=O (stereo not drawn) [Cmpd 694]
Alternaria solani
  ALTESO disease control, 1DP: B (≤ 80)
Puccinia triticina
  PUCCRT 1DP disease control rating, LV activity at 125.1 g/H: A (> 80)
  PUCCRT 3DC disease control rating, LV activity at 125.1 g/H: A (> 80)
Zymoseptoria tritici
  SEPTTR 1DP disease control rating, LV activity at 125.1 g/H: B (≤ 80)
  SEPTTR 3DC disease control rating, LV activity at 125.1 g/H: A (> 80)

## CCC[C@@H](Oc1ccccc1)[C@H](C)OC(=O)[C@H](C)NC(=O)c1nccc(OC)c1OCOC(C)=O [Cmpd 699]
Alternaria solani
  ALTESO disease control, 1DP: B (≤ 80)
Puccinia triticina
  PUCCRT 1DP disease control rating, LV activity at 125.1 g/H: A (> 80)
  PUCCRT 3DC disease control rating, LV activity at 125.1 g/H: A (> 80)
Zymoseptoria tritici
  SEPTTR 1DP disease control rating, LV activity at 125.1 g/H: A (> 80)
  SEPTTR 3DC disease control rating, LV activity at 125.1 g/H: A (> 80)

## COc1ccnc(C(=O)N[C@@H](C)C(=O)O[C@@H](C)[C@@H](CC(C)C)Oc2ccccc2)c1OCOC(=O)C(C)C [Cmpd 1101]
Alternaria solani
  ALTESO disease control, 1DP: D
Puccinia triticina; 1 Day Protectant, wheat brown rust
  LV activity at 125.1 g/H PUCCRT 1DP (disease control rating): A (> 80)
Puccinia triticina; 3 Day Curative, wheat brown rust
  LV activity at 125.1 g/H PUCCRT 3DC (disease control rating): A (> 80)
Zymoseptoria tritici; 1 Day Protectant, wheat leaf blotch
  LV activity at 125.1 g/H SEPTTR 1DP (disease control rating): A (> 80)
Zymoseptoria tritici; 3 Day Curative, wheat leaf blotch
  LV activity at 125.1 g/H SEPTTR 3DC (disease control rating): A (> 80)
